Source: US12077503B2, “Substituted cyclic amides and their use as herbicides” (FMC CORPORATION, priority 2015, dated 2024)

Columns and labels:
Type in all cases: in vivo
[1] = tested on: barnyardgrass (Echinochloa crus-galli); assay: Test G Pre-Emergence Protocol; settings: Echinochloa crus-galli, pre-emergence, 312 h, evaluated after 13 days; for pest or weed control at 15.625 g/ha: 15.625 g ai/ha, read-out: Barnyard grass damage rating (100=total damage to plant; 0=no damage to plant); for pest or weed control at 62.5 g/ha: 62.5 g ai/ha, 100=total damage to plant, 0=no damage to plant, read-out: plant damage rating, Barnyardgrass; for pest or weed control at 250 g/ha: 250 g ai/ha, read-out: Barnyardgrass damage rating (100=total damage to plant; 0=no damage to plant)
In short: (§1)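 Test compound in 0.5% Tween 20 acetone/water (50:50) was applied at three rates (15.625, 62.5, 250 g/ha) to soil sown one day earlier. After 13 days plants were scored for injury, where 0 means unaffected and 100 means completely damaged.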

[2] = tested on: corn (Zea mays); assay: Test G Pre-Emergence Protocol; settings: Zea mays, pre-emergence, 312 h, evaluated after 13 days; for plant injury at 15.625 g/ha: 15.625 g ai/ha; for plant injury at 15.625 g/ha / plant injury at 250 g/ha: read-out: Corn damage rating (100=total damage to plant; 0=no damage to plant); for plant injury at 62.5 g/ha: 62.5 g ai/ha, 100=total damage to plant, 0=no damage to plant, read-out: plant damage rating, Corn; for plant injury at 250 g/ha: 250 g ai/ha
In short: as §1

[3] = tested on: giant foxtail (Setaria faberi); assay: Test G Pre-Emergence Protocol; settings: Setaria faberi, pre-emergence, 312 h, evaluated after 13 days; for pest or weed control at 15.625 g/ha: 15.625 g ai/ha; for pest or weed control at 15.625 g/ha / pest or weed control at 250 g/ha: read-out: Foxtail, Giant damage rating (100=total damage to plant; 0=no damage to plant); for pest or weed control at 62.5 g/ha: 62.5 g ai/ha, 100=total damage to plant, 0=no damage to plant, read-out: plant damage rating, Foxtail, Giant; for pest or weed control at 250 g/ha: 250 g ai/ha
In short: as §1

[4] = tested on: ivy-leaved morning glory (Ipomoea hederacea); assay: Test G Pre-Emergence Protocol; settings: Ipomoea, pre-emergence, 312 h, evaluated after 13 days; for pest or weed control at 15.625 g/ha: 15.625 g ai/ha, read-out: Morning-glory, Ivy-leaved damage rating (100=total damage to plant; 0=no damage to plant); for pest or weed control at 62.5 g/ha: 62.5 g ai/ha, 100=total damage to plant, 0=no damage to plant, read-out: plant damage rating, Morningglory, Ivy-leaved; for pest or weed control at 250 g/ha: 250 g ai/ha, read-out: Morningglory, Ivy-leaved damage rating (100=total damage to plant; 0=no damage to plant)
In short: as §1

[5] = tested on: redroot pigweed (Amaranthus retroflexus); assay: Test G Pre-Emergence Protocol; settings: Amaranthus retroflexus, pre-emergence, 312 h, evaluated after 13 days; for pest or weed control at 15.625 g/ha: 15.625 g ai/ha; for pest or weed control at 15.625 g/ha / pest or weed control at 250 g/ha: read-out: Pigweed, Redroot damage rating (100=total damage to plant; 0=no damage to plant); for pest or weed control at 62.5 g/ha: 62.5 g ai/ha, 100=total damage to plant, 0=no damage to plant, read-out: plant damage rating, Pigweed, Redroot; for pest or weed control at 250 g/ha: 250 g ai/ha
In short: as §1

[6] = tested on: velvetleaf (Abutilon theophrasti); assay: Test G Pre-Emergence Protocol; settings: Abutilon theophrasti, pre-emergence, 312 h, evaluated after 13 days; for pest or weed control at 15.625 g/ha: 15.625 g ai/ha; for pest or weed control at 15.625 g/ha / pest or weed control at 250 g/ha: read-out: Velvetleaf damage rating (100=total damage to plant; 0=no damage to plant); for pest or weed control at 62.5 g/ha: 62.5 g ai/ha, 100=total damage to plant, 0=no damage to plant, read-out: plant damage rating, Velvetleaf; for pest or weed control at 250 g/ha: 250 g ai/ha
In short: as §1

[7] = tested on: barnyardgrass (Echinochloa crus-galli); assay: Test G Post-Emergence Protocol; settings: Echinochloa crus-galli, post-emergence, 312 h; for pest or weed control at 15.625 g/ha: 15.625 g ai/ha, evaluated after 13 days (100=total damage to plant; 0=no damage to plant), read-out: Barnyardgrass damage rating; for pest or weed control at 62.5 g/ha: 62.5 g ai/ha, read-out: Barnyardgrass damage rating (100=total damage to plant; 0=no damage to plant); for pest or weed control at 62.5 g/ha / pest or weed control at 250 g/ha: evaluated after 13 days; for pest or weed control at 250 g/ha: 250 g ai/ha, read-out: damage to plant, Barnyardgrass (100=total damage to plant; 0=no damage to plant)
In short: (§2)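 Scores run 0 (no damage) to 100 (total damage) and were taken 13 days after spraying. Plants had been raised in pots for 8 days under glasshouse control (24/16 °C, 14 h photoperiod, 65% humidity) and then treated at 15.625, 62.5 or 250 g/ha.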

[8] = tested on: corn (Zea mays); assay: Test G Post-Emergence Protocol; settings: Zea mays, post-emergence, 312 h; for plant injury at 15.625 g/ha: 15.625 g ai/ha, evaluated after 13 days (100=total damage to plant; 0=no damage to plant), read-out: Corn damage rating; for plant injury at 62.5 g/ha: 62.5 g ai/ha, read-out: Corn damage rating (100=total damage to plant; 0=no damage to plant); for plant injury at 62.5 g/ha / plant injury at 250 g/ha: evaluated after 13 days; for plant injury at 250 g/ha: 250 g ai/ha, read-out: damage to plant, Corn (100=total damage to plant; 0=no damage to plant)
In short: as §2

[9] = tested on: giant foxtail (Setaria faberi); assay: Test G Post-Emergence Protocol; settings: Setaria faberi, post-emergence, 312 h; for pest or weed control at 15.625 g/ha: 15.625 g ai/ha, evaluated after 13 days (100=total damage to plant; 0=no damage to plant), read-out: Foxtail, Giant damage rating; for pest or weed control at 62.5 g/ha: 62.5 g ai/ha, read-out: Foxtail, Giant damage rating (100=total damage to plant; 0=no damage to plant); for pest or weed control at 62.5 g/ha / pest or weed control at 250 g/ha: evaluated after 13 days; for pest or weed control at 250 g/ha: 250 g ai/ha, read-out: damage to plant, Foxtail, Giant (100=total damage to plant; 0=no damage to plant)
In short: as §2

[10] = tested on: ivy-leaved morning glory (Ipomoea hederacea); assay: Test G Post-Emergence Protocol; settings: Ipomoea, post-emergence, 312 h; for pest or weed control at 15.625 g/ha: 15.625 g ai/ha, evaluated after 13 days (100=total damage to plant; 0=no damage to plant), read-out: Morningglory, Ivy-leaved damage rating; for pest or weed control at 62.5 g/ha: 62.5 g ai/ha, read-out: Morningglory, Ivy-leaved damage rating (100=total damage to plant; 0=no damage to plant); for pest or weed control at 62.5 g/ha / pest or weed control at 250 g/ha: evaluated after 13 days; for pest or weed control at 250 g/ha: 250 g ai/ha, read-out: damage to plant, Morningglory, Ivy-leaved (100=total damage to plant; 0=no damage to plant)
In short: as §2

[11] = tested on: redroot pigweed (Amaranthus retroflexus); assay: Test G Post-Emergence Protocol; settings: Amaranthus retroflexus, post-emergence, 312 h; for pest or weed control at 15.625 g/ha: 15.625 g ai/ha, evaluated after 13 days (100=total damage to plant; 0=no damage to plant), read-out: Pigweed, Redroot damage rating; for pest or weed control at 62.5 g/ha: 62.5 g ai/ha, read-out: Pigweed, Redroot damage rating (100=total damage to plant; 0=no damage to plant); for pest or weed control at 62.5 g/ha / pest or weed control at 250 g/ha: evaluated after 13 days; for pest or weed control at 250 g/ha: 250 g ai/ha, read-out: damage to plant, Pigweed, Redroot (100=total damage to plant; 0=no damage to plant)
In short: as §2

[12] = tested on: velvetleaf (Abutilon theophrasti); assay: Test G Post-Emergence Protocol; settings: Abutilon theophrasti, post-emergence, 312 h; for pest or weed control at 15.625 g/ha: 15.625 g ai/ha, evaluated after 13 days (100=total damage to plant; 0=no damage to plant), read-out: Velvetleaf damage rating; for pest or weed control at 62.5 g/ha: 62.5 g ai/ha, read-out: Velvetleaf damage rating (100=total damage to plant; 0=no damage to plant); for pest or weed control at 62.5 g/ha / pest or weed control at 250 g/ha: evaluated after 13 days; for pest or weed control at 250 g/ha: 250 g ai/ha, read-out: damage to plant, Velvetleaf (100=total damage to plant; 0=no damage to plant)
In short: as §2

Structure (SMILES) | pest or weed control at 15.625 g/ha [1] | pest or weed control at 62.5 g/ha [1] | pest or weed control at 250 g/ha [1] | plant injury at 15.625 g/ha [2] | plant injury at 62.5 g/ha [2] | plant injury at 250 g/ha [2] | pest or weed control at 15.625 g/ha [3] | pest or weed control at 62.5 g/ha [3] | pest or weed control at 250 g/ha [3] | pest or weed control at 15.625 g/ha [4] | pest or weed control at 62.5 g/ha [4] | pest or weed control at 250 g/ha [4] | pest or weed control at 15.625 g/ha [5] | pest or weed control at 62.5 g/ha [5] | pest or weed control at 250 g/ha [5] | pest or weed control at 15.625 g/ha [6] | pest or weed control at 62.5 g/ha [6] | pest or weed control at 250 g/ha [6] | pest or weed control at 15.625 g/ha [7] | pest or weed control at 62.5 g/ha [7] | also measured
Cc1cc(NC(=O)[C@@H]2C(=O)N(C)C[C@H]2c2ccc(C(F)(F)F)cc2)sn1 (racemic) [Compound 1560] | 0% | 0% | 10% | 0% | 0% | 10% | 0% | 0% | 10% | 0% | 0% | 0% | 0% | 0% | 0% | 0% | 0% | 0% | 0% | 0% | pest or weed control at 250 g/ha [7]: 20%; plant injury at 15.625 g/ha [8]: 0%; plant injury at 62.5 g/ha [8]: 0%; plant injury at 250 g/ha [8]: 0%; pest or weed control at 15.625 g/ha [9]: 0%; pest or weed control at 62.5 g/ha [9]: 0%; pest or weed control at 250 g/ha [9]: 20%; pest or weed control at 15.625 g/ha [10]: 0%; pest or weed control at 62.5 g/ha [10]: 0%; pest or weed control at 250 g/ha [10]: 0%; pest or weed control at 15.625 g/ha [11]: 0%; pest or weed control at 62.5 g/ha [11]: 0%; pest or weed control at 250 g/ha [11]: 20%; pest or weed control at 15.625 g/ha [12]: 0%; pest or weed control at 62.5 g/ha [12]: 0%; pest or weed control at 250 g/ha [12]: 10%
Cc1cc(NC(=O)[C@@H]2C(=O)N(C)C[C@H]2c2ccc(C(F)(F)F)cc2)ccc1F (racemic) [Compound 1593] | 0% | 0% | 20% | 0% | 0% | 0% | 0% | 10% | 70% | 0% | 0% | 0% | 0% | 0% | 0% | 0% | 0% | 0% | 0% | 0% | pest or weed control at 250 g/ha [7]: 20%; plant injury at 15.625 g/ha [8]: 0%; plant injury at 62.5 g/ha [8]: 10%; plant injury at 250 g/ha [8]: 10%; pest or weed control at 15.625 g/ha [9]: 0%; pest or weed control at 62.5 g/ha [9]: 10%; pest or weed control at 250 g/ha [9]: 70%; pest or weed control at 15.625 g/ha [10]: 0%; pest or weed control at 62.5 g/ha [10]: 0%; pest or weed control at 250 g/ha [10]: 0%; pest or weed control at 15.625 g/ha [11]: 0%; pest or weed control at 62.5 g/ha [11]: 0%; pest or weed control at 250 g/ha [11]: 0%; pest or weed control at 15.625 g/ha [12]: 0%; pest or weed control at 62.5 g/ha [12]: 0%; pest or weed control at 250 g/ha [12]: 0%
